Reference: patent publication US11358962B2, “2-hetaryl imidazol[1,2-a]pyridine derivatives” (Hoffmann-La Roche Inc., priority 2013, dated 2022)

test system: native tau aggregates; assay: TAU radioligand in vitro displacement assay ([3H]T808, autoradiography on human AD brain sections); format: binding; settings: compound 10 nM, radioligand [3H]T808 10 nM
Method in brief: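 Displacement of 10 nM [3H]T808 from 10 μm human AD brain cryosections by test compounds at various concentrations, 30 min at room temperature in 50 mM Tris pH 7.4, then cold washes. Autoradiography after 5-day exposure; specific binding = ROI signal minus white-matter signal, expressed as % displacement.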

Compound	% displacement of [3H]T808 (10 nM) at 10 nM [%]
FCCC1CCN(c2ccn3cc(-c4ccc5c(c4)OCCO5)nc3c2)CC1 [Example 33, 2-(2,3-Dihydro-benzo[1,4]dioxin-6-yl)-7-[4-(2-fluoro-ethyl)-piperidin-1-yl]-imidazo[1,2-a]pyridine]	5
CO[C@@H]1CCN(c2ccn3cc(-c4ccccc4)nc3c2)C1 [Example 43, 7-((R)-3-Methoxy-pyrrolidin-1-yl)-2-phenyl-imidazo[1,2-a]pyridine]	15
CN(C)c1ccn2cc(-c3ccccc3)nc2c1 [Example 3, N,N-Dimethyl-2-phenylimidazo[1,2-a]pyridin-7-amine]	59
COc1ccc(-c2cn3ccc(N4CC4C)cc3n2)cc1 (stereo not drawn) [Example 138, 2-(4-methoxyphenyl)-7-(2-methylaziridin-1-yl)imidazo[1,2-a]pyridine]	44
FCCCOc1ccc(-c2cn3ccc(NC4CC4)cc3n2)cc1 [Example 148, N-Cyclopropyl-2-[4-(3-fluoropropoxy)phenyl]imidazo[1,2-a]pyridin-7-amine]	20
CO[C@H]1CCN(c2ccn3cc(-c4cccc(C)c4)nc3c2)C1 [Example 48, 7-((S)-3-Methoxy-pyrrolidin-1-yl)-2-m-tolyl-imidazo[1,2-a]pyridine]	8
COc1cccc(-c2cn3ccc(N(C)C)cc3n2)c1 [Example 32, [2-(3-Methoxy-phenyl)-imidazo[1,2-a]pyridin-7-yl]-dimethyl-amine]	36
CN(C)c1ccn2cc(-c3cccc(OCF)c3)nc2c1 [Example 78, [2-(3-Fluoromethoxy-phenyl)-imidazo[1,2-a]pyridin-7-yl]-dimethyl-amine]	53
FC1CCN(c2ccn3cc(-c4ccc5c(c4)OCO5)nc3c2)CC1 [Example 68, 2-Benzo[1,3]dioxol-5-yl-7-(4-fluoro-piperidin-1-yl)-imidazo[1,2-a]pyridine]	25
CNc1ccn2cc(-c3cc(C)nn3C)nc2c1 [Example 117, N-[2-(2,5-Dimethyl-2H-pyrazol-3-yl)-imidazo[1,2-a]pyridin-7-yl]-methyl-amine]	18
CO[C@@H]1CCN(c2ccn3cc(-c4cccc(C)c4)nc3c2)C1 [Example 86, 7-((R)-3-Methoxy-pyrrolidin-1-yl)-2-m-tolyl-imidazo[1,2-a]pyridine]	33
COc1ccc(-c2cn3ccc(NCCF)cc3n2)cc1OC [Example 73, [2-(3,4-Dimethoxy-phenyl)-imidazo[1,2-a]pyridin-7-yl]-(2-fluoro-ethyl)-amine]	21
CN(C)c1ccn2cc(-c3ccc(OCCF)cc3)nc2c1 [Example 17, {2-[4-(2-Fluoro-ethoxy)-phenyl]-imidazo[1,2-a]pyridin-7-yl}-dimethyl-amine]	37
CNc1ccn2cc(-c3ccc(Cl)s3)nc2c1 [Example 127, N-[2-(5-Chloro-thiophen-2-yl)-imidazo[1,2-a]pyridin-7-yl]-methyl-amine]	26
CN(C)c1ccn2cc(-c3ccc4c(c3)OCO4)nc2c1 [Example 38, (2-Benzo[1,3]dioxol-5-yl-imidazo[1,2-a]pyridin-7-yl)-dimethyl-amine]	52
FCCNc1ccn2cc(-c3ccco3)nc2c1 [Example 149, N-(2-Fluoroethyl)-2-(furan-2-yl)imidazo[1,2-a]pyridin-7-amine]	23

Now from value to molecule:

% displacement of [3H]T808 (10 nM) at 10 nM [%]	Compound
12	FCCC1CCN(c2ccn3cc(-c4ccccc4)nc3c2)CC1 [Example 58, 7-[4-(2-Fluoro-ethyl)-piperidin-1-yl]-2-phenyl-imidazo[1,2-a]pyridine]
58	CNc1ccn2cc(-c3ccc(C)o3)nc2c1 [Example 115, Methyl-[2-(5-methyl-furan-2-yl)-imidazo[1,2-a]pyridin-7-yl]-amine]
34	CO[C@H]1CCN(c2ccn3cc(-c4ccc(C)cc4)nc3c2)C1 [Example 88, 7-((S)-3-Methoxy-pyrrolidin-1-yl)-2-p-tolyl-imidazo[1,2-a]pyridine]
47	CNc1ccn2cc(-c3ccc(O)c(OC)c3)nc2c1 [Example 81, 2-Methoxy-4-(7-methylamino-imidazo[1,2-a]pyridin-2-yl)-phenol]
38	Cc1ccc(-c2cn3ccc(N(C)CCF)cc3n2)cc1 [Example 29, N-(2-Fluoroethyl)-N-methyl-(2-p-tolyl-imidazo[1,2-a]pyridin-7-yl)-amine]
18	CC(=O)O.CNc1ccn2cc(-c3ccc(N4CCCC4)cc3)nc2c1 [Example 94, Methyl-[2-(4-pyrrolidin-1-yl-phenyl)-imidazo[1,2-a]pyridin-7-yl]-amine acetic acid adduct]
5	Cc1ccc(-c2cn3ccc(N4CCC(CCF)CC4)cc3n2)cc1 [Example 87, 7-[4-(2-Fluoro-ethyl)-piperidin-1-yl]-2-p-tolyl-imidazo[1,2-a]pyridine]
40	CNc1ccn2cc(-c3ccc(OC)c(OC)c3)nc2c1 [Example 66, [2-(3,4-Dimethoxy-phenyl)-imidazo[1,2-a]pyridin-7-yl]-methyl-amine]
40	CNc1ccn2cc(-c3ccc(OCCF)cc3)nc2c1 [Example 109, 2-[4-(2-Fluoroethoxy)phenyl]-N-methylimidazo[1,2-a]pyridin-7-amine]
42	COc1ccc(-c2cn3ccc(NCCF)cc3n2)cc1 [Example 75, (2-Fluoro-ethyl)-[2-(4-methoxy-phenyl)-imidazo[1,2-a]pyridin-7-yl]-amine]
28	CO[C@@H]1CCN(c2ccn3cc(-c4ccc(C)cc4)nc3c2)C1 [Example 56, 7-((R)-3-Methoxy-pyrrolidin-1-yl)-2-p-tolyl-imidazo[1,2-a]pyridine]
47	CNc1ccn2cc(-c3ccc(N4CCOCC4)cc3)nc2c1 [Example 103, Methyl-[2-(4-morpholin-4-yl-phenyl)-imidazo[1,2-a]pyridin-7-yl]-amine]
32	FCCCOc1ccc(-c2cn3ccc(N4CCC4)cc3n2)cc1 [Example 125, 7-(Azetidin-1-yl)-2-[4-(3-fluoropropoxy)phenyl]imidazo[1,2-a]pyridine]
23	FCCOc1cccc(-c2cn3ccc(N4CCC4)cc3n2)c1 [Example 140, 7-(azetidin-1-yl)-2-(3-(2-fluoroethoxy)phenyl)imidazo[1,2-a]pyridine]
54	COc1ccc(-c2cn3ccc(N4CCC4)cc3n2)cc1 [Example 24, 7-Azetidin-1-yl-2-(4-methoxy-phenyl)-imidazo[1,2-a]pyridine]
33	COc1ccc(-c2cn3ccc(N4CCN(CCF)CC4)cc3n2)cc1 [Example 15, 7-[4-(2-Fluoro-ethyl)-piperazin-1-yl]-2-(4-methoxy-phenyl)-imidazo[1,2-a]pyridine]
21	FC1CCN(c2ccn3cc(-c4ccccc4)nc3c2)CC1 [Example 5, 7-(4-Fluoropiperidin-1-yl)-2-phenylimidazo[1,2-a]pyridine]

same assay, conditions: compound 1 uM, radioligand [3H]T808 10 nM

% displacement of [3H]T808 (10 nM) at 1 uM [%]	Compound
92	CN(C)c1ccn2cc(-c3ccccc3)nc2c1 [Example 3, N,N-Dimethyl-2-phenylimidazo[1,2-a]pyridin-7-amine]
82	FC1CCN(c2ccn3cc(-c4ccccc4)nc3c2)CC1 [Example 5, 7-(4-Fluoropiperidin-1-yl)-2-phenylimidazo[1,2-a]pyridine]

test system: tau aggregates; assay: Autoradiography of tritiated radioligands on human cortical brain sections (Braak V AD patient); format: binding; settings: radioligand 1.8 (ex. 62), 2.8 (ex. 64), 3.7 (ex. 61), 2.7 nM (ex. 63)
Experimental: The radioligand concentrations were 1.8, 2.8, 3.7 and 2.7 nM, respectively.

Compound	autoradiogram staining pattern
[3H]CNc1ccn2cc(-c3ccc(OCF)cc3)nc2c1 [Example 61, [^3H]-[2-(4-Fluoromethoxy-phenyl)-imidazo[1,2-a]pyridin-7-yl]-methyl-amine]	punctate staining of tau aggregates in a layered distribution pattern
